Test results published in ChEMBL document CHEMBL5291721, “A preclinical secondary pharmacology resource illuminates target-adverse drug reaction associations of marketed drugs” (Nat Commun, 2023).

Legend:
[1] = target: T1, Alpha-1A adrenergic receptor (Homo sapiens, UniProt P35348)
T1 sequence (P35348 whole entry): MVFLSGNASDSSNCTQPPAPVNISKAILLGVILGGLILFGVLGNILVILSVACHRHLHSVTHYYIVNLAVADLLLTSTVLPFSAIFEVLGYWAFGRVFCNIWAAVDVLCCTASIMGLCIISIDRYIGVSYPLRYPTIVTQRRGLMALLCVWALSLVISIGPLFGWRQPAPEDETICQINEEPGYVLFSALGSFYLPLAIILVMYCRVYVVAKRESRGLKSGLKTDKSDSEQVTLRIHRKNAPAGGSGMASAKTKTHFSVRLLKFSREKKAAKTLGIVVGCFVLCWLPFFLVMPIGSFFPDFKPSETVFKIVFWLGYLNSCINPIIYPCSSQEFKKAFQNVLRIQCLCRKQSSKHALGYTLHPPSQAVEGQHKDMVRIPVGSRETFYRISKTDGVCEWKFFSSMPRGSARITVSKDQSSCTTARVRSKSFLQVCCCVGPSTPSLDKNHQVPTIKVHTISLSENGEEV

Progesterone receptor [2] = target: T2, Progesterone receptor (Homo sapiens, UniProt P06401); type: functional
T2 sequence (P06401 whole entry): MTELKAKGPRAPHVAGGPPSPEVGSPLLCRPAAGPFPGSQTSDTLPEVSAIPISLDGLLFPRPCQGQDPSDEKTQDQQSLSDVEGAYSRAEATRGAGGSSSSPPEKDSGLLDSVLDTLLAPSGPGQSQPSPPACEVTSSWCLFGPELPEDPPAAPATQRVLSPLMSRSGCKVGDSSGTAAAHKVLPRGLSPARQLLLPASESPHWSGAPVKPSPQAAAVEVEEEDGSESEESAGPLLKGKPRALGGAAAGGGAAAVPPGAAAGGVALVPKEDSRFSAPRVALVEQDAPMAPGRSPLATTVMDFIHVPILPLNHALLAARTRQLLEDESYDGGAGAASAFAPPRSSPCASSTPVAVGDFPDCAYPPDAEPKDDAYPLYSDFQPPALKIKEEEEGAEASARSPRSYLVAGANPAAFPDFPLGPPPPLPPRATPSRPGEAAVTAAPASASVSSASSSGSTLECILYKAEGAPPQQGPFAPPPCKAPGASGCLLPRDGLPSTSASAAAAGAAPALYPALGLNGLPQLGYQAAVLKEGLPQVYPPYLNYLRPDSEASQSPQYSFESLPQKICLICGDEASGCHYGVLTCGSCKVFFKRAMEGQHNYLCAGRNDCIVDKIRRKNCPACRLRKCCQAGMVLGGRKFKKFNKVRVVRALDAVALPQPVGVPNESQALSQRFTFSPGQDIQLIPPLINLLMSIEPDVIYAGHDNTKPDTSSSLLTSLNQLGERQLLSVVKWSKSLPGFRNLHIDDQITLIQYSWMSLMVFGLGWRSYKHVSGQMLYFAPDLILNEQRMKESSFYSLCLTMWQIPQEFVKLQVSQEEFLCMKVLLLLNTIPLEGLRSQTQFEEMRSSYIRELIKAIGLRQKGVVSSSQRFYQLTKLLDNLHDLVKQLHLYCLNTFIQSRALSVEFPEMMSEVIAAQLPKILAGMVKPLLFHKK

Progesterone receptor [3] = target: T2, Progesterone receptor; type: functional; remark: listed apart in the source
[4] = target: Sodium-dependent serotonin transporter (Homo sapiens, UniProt P31645)
[5] = target: T1, Alpha-1A adrenergic receptor; remark: listed apart in the source
[6] = target: Voltage-dependent N-type calcium channel subunit alpha-1B (Rattus norvegicus, UniProt Q02294); type: functional
Cannabinoid receptor 1 = Cannabinoid receptor 1 (Homo sapiens, UniProt P21554)
Glucagon receptor = Glucagon receptor (Homo sapiens, UniProt P47871)
Progesterone receptor [7] = target: T2, Progesterone receptor
[8] = target: T3, Alpha-2A adrenergic receptor (Homo sapiens, UniProt P08913)
T3 sequence (P08913 whole entry): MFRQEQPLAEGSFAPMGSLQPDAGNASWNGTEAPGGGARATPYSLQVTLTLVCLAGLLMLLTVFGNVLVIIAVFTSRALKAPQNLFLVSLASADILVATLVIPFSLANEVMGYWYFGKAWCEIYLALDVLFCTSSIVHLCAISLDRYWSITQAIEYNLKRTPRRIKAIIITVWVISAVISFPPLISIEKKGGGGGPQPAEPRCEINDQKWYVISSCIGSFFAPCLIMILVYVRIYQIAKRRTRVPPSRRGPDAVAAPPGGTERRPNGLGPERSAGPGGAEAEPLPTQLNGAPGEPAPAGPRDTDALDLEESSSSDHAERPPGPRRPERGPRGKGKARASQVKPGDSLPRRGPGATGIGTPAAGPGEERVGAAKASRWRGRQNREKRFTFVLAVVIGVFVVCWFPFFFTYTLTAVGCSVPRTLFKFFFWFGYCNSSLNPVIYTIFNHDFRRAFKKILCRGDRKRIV

Mu-type opioid receptor [9] = target: T4, Mu-type opioid receptor (Homo sapiens, UniProt P35372)
[10] = target: T5, 5-hydroxytryptamine receptor 1A (Homo sapiens, UniProt P08908)
T5 sequence (P08908 whole entry): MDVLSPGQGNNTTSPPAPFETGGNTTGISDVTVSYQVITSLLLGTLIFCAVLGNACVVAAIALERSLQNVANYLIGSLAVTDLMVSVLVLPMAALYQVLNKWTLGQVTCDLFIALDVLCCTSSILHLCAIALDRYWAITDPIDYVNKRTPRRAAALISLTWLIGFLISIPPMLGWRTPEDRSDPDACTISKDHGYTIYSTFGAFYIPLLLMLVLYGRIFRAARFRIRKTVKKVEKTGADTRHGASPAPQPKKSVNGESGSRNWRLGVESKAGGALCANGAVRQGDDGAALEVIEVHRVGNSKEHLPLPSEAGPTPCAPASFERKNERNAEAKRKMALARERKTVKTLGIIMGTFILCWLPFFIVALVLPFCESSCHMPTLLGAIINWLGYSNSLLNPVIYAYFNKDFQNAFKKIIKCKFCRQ

[11] = target: Gamma-aminobutyric acid receptor subunit alpha-1/alpha-2/beta-2/gamma-2 (Homo sapiens, UniProt P14867+P18507+P47869+P47870); type: functional, cell-based
[12] = target: 5-hydroxytryptamine receptor 2A (Homo sapiens, UniProt P28223); type: functional, cell-based
Mu-type opioid receptor [13] = target: T4, Mu-type opioid receptor; experiment: biochemical; type: functional
Also: assay procedure not described here.

Sequence of Voltage-dependent N-type calcium channel subunit alpha-1B (Q02294 whole entry): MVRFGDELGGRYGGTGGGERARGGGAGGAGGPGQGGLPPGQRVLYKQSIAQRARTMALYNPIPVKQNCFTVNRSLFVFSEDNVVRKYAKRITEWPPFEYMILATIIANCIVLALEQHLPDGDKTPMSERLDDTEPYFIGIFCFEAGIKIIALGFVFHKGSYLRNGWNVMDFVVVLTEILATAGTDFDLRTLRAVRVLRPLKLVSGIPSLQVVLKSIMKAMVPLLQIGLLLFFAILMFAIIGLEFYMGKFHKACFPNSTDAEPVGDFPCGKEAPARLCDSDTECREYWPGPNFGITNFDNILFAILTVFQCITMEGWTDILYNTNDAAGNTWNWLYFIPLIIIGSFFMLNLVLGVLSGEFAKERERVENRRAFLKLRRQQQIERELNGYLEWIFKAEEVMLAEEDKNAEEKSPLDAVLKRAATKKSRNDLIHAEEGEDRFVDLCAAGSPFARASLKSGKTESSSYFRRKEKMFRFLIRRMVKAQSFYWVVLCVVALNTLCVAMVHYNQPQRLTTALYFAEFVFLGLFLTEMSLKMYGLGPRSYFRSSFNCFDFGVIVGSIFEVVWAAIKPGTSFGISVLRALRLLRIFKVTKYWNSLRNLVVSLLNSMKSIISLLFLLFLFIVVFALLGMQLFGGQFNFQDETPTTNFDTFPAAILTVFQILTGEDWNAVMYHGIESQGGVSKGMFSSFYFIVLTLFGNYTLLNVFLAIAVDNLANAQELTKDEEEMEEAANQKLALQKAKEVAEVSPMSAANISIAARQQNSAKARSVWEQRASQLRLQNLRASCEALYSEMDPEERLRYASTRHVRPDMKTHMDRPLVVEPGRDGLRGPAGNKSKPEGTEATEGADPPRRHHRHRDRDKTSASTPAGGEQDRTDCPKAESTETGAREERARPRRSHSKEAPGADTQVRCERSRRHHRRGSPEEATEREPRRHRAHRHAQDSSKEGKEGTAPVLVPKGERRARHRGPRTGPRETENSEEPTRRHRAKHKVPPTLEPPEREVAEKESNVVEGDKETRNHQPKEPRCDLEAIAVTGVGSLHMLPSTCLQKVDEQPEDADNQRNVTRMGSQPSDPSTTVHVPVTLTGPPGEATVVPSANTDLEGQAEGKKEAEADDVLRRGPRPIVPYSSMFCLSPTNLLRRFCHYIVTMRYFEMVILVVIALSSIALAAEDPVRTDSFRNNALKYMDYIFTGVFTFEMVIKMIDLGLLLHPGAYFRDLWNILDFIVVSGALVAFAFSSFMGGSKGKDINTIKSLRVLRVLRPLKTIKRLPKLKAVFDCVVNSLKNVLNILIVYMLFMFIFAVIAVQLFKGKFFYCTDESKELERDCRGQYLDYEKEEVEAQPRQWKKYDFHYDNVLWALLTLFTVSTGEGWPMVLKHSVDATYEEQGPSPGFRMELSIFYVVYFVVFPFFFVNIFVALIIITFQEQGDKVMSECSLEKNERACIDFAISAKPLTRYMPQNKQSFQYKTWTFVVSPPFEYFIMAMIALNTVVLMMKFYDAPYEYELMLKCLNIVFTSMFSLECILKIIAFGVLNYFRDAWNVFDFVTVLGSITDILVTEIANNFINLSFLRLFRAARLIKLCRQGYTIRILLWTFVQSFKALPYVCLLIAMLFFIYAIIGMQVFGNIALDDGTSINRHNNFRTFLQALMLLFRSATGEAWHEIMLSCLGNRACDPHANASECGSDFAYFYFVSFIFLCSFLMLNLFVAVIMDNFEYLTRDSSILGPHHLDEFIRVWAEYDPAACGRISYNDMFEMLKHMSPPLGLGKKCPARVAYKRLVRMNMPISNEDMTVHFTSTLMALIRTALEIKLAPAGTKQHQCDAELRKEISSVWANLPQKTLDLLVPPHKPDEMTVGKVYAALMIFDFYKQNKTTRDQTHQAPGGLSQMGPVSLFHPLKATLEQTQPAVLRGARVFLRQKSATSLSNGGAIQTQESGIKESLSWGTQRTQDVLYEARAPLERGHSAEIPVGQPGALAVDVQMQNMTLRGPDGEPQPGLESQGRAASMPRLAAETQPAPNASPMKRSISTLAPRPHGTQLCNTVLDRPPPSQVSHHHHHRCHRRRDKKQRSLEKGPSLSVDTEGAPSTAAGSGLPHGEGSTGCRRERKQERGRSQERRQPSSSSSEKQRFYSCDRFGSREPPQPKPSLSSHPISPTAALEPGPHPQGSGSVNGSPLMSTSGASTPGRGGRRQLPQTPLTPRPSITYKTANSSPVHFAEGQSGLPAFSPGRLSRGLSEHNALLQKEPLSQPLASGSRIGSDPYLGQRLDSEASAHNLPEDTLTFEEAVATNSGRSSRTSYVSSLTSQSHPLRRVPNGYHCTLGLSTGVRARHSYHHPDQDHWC
T4 sequence (P35372 whole entry): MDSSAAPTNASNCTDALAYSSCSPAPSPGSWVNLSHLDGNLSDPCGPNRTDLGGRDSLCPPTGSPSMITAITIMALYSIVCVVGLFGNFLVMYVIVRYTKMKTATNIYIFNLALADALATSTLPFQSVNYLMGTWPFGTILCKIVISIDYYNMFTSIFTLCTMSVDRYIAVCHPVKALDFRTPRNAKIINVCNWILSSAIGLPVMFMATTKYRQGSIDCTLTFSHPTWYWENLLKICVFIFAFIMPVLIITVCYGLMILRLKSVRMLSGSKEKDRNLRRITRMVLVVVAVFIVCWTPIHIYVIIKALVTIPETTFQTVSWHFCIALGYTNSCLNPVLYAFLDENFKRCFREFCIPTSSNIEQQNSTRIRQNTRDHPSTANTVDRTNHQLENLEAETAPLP
Sequence of Gamma-aminobutyric acid receptor subunit alpha-1/alpha-2/beta-2/gamma-2 (P14867 whole entry): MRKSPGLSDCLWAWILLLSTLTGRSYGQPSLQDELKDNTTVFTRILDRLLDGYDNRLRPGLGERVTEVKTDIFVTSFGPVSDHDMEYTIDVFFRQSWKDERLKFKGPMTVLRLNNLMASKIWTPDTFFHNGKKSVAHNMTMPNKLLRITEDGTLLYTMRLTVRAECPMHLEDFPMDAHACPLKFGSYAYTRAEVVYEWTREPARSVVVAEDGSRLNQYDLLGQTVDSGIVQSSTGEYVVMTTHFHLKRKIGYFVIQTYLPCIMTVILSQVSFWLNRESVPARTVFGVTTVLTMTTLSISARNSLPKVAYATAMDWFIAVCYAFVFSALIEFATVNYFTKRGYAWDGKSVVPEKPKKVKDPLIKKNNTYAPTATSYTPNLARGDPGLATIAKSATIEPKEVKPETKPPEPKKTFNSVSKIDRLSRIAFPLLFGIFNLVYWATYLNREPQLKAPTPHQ
Sequence of Gamma-aminobutyric acid receptor subunit alpha-1/alpha-2/beta-2/gamma-2 (P47870 whole entry): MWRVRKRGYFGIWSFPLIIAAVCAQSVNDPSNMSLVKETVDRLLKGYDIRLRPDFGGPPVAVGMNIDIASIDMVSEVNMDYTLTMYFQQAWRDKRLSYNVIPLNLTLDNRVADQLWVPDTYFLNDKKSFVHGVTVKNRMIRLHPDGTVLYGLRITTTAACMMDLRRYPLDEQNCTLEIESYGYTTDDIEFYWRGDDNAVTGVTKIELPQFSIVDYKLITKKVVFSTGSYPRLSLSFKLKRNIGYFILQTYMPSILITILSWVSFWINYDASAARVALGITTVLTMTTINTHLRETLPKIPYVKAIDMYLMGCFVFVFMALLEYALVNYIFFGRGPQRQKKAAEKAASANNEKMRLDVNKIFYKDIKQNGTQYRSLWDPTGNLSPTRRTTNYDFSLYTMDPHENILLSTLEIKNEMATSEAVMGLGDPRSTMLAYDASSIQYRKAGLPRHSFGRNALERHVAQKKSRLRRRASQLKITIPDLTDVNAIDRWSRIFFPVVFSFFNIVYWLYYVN
Sequence of Gamma-aminobutyric acid receptor subunit alpha-1/alpha-2/beta-2/gamma-2 (P18507 whole entry): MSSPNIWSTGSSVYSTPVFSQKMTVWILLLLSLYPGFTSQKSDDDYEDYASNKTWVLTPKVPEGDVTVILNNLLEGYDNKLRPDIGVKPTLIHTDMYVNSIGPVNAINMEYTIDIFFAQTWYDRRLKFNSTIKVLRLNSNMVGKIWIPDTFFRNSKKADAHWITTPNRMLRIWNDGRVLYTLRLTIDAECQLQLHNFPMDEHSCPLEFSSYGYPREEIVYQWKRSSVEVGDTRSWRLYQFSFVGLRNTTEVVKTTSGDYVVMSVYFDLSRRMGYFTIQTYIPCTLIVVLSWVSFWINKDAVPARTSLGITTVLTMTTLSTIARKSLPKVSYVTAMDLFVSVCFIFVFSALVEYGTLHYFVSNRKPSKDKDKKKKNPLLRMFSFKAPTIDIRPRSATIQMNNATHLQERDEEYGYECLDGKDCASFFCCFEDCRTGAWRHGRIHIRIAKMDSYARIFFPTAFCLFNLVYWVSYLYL
Sequence of Gamma-aminobutyric acid receptor subunit alpha-1/alpha-2/beta-2/gamma-2 (P47869 whole entry): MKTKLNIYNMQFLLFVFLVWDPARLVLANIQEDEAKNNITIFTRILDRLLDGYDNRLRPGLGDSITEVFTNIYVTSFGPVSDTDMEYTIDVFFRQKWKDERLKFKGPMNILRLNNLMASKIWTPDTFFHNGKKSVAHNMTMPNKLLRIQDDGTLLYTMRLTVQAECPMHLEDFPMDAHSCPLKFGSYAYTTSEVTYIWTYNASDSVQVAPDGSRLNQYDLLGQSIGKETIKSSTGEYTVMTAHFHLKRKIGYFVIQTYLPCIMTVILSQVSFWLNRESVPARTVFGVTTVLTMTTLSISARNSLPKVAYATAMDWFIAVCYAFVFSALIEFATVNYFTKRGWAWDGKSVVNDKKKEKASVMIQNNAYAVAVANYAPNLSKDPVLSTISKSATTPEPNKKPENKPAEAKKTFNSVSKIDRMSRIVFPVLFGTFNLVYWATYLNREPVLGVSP

Row | SMILES | AC50 [1] [µM] | AC50 (Progesterone receptor [2]) [µM] | AC50 (Progesterone receptor [3]) [µM] | AC50 [4] [µM] | AC50 [5] [µM] | AC50 [6] [µM] | AC50 (Cannabinoid receptor 1) [µM] | AC50 (Glucagon receptor) [µM] | AC50 (Progesterone receptor [7]) [µM] | AC50 [8] [µM] | AC50 (Mu-type opioid receptor [9]) [µM] | AC50 [10] [µM] | AC50 [11] [µM] | AC50 [12] [µM] | AC50 (Mu-type opioid receptor [13]) [µM]
1 | C=CCCCCCCCCC(=O)O [UNDECYLENIC ACID] | > 30 |  |  |  |  |  |  |  |  |  |  |  |  |  | 
2 | CCC(CC)(CC(=O)Nc1cccc(/C=C/c2nc(C3CCC3)cs2)c1)C(=O)O |  | > 30 | > 30 | > 30 |  |  |  |  |  |  |  |  |  |  | 
3 | O=[N+]([O-])O[C@@H]1CO[C@H]2[C@@H]1OC[C@@H]2O [ISOSORBIDE MONONITRATE] |  |  |  | > 10 | > 10 | > 10 | > 10 | > 30 | > 30 | > 10 | > 30 | > 10 |  |  | 
4 | O=[N+]([O-])c1cn2c(n1)OC[C@@H](OCc1ccc(OC(F)(F)F)cc1)C2 [PRETOMANID] |  |  |  | > 10 |  | > 10 |  | > 30 |  | > 10 | > 10 | > 10 |  |  | 
5 | Cc1oc(=O)oc1CN1CCN(c2cc3c(cc2F)c(=O)c(C(=O)O)c2n3C(C)S2)CC1 (stereo not given) [PRULIFLOXACIN] | > 30 |  |  |  |  |  |  |  |  |  |  |  | > 30 | > 30 | > 30
6 | Cc1cc(C)c(NC(=O)CN(CC(=O)O)CC(=O)O)c(C)c1Br [MEBROFENIN] | > 30 |  |  |  |  |  |  |  |  |  |  |  | > 30 | > 30 | > 30
7 | COC1=C(OC)C(=O)C(C/C=C(\C)CC/C=C(\C)CC/C=C(\C)CC/C=C(\C)CC/C=C(\C)CC/C=C(\C)CC/C=C(\C)CC/C=C(\C)CC/C=C(\C)CCC=C(C)C)=C(C)C1=O [UBIDECARENONE] |  |  |  |  |  |  |  |  |  |  |  |  | > 30 | > 30 | > 30
8 | CC[C@H]1CN2CCc3cc(OC)c(OC)cc3[C@@H]2C[C@@H]1C[C@H]1NCCc2cc(OC)c(OC)cc21 [EMETINE] | 2.51 | > 30 | > 30 |  | 6 |  |  |  |  |  | 18 |  | > 30 |  | > 30
9 | CN1CCN(C2=Nc3ccccc3Sc3ccc(Cl)cc32)CC1 [CLOTHIAPINE] |  |  |  |  |  |  |  |  |  |  |  |  | > 10 | > 30 | 11
10 | C=CCN1C[C@H](C(=O)N(CCCN(C)C)C(=O)NCC)C[C@@H]2c3cccc4[nH]cc(c34)C[C@H]21 [CABERGOLINE] |  | > 10 | > 10 | 23.4 | 3.62 |  |  |  |  |  | > 30 | 0.073 | > 30 | 0.0626 | 
11 | CN(C)CCC=C1c2ccccc2C=Cc2ccccc21 [CYCLOBENZAPRINE] |  |  |  |  | 0.261 | > 10 | > 10 | > 30 | > 30 |  | > 10 | 4.94 |  |  | 
12 | CCOc1ccccc1OCC1CNCCO1 (stereo not given) [VILOXAZINE] |  |  |  |  | 11.2 | > 10 | > 10 | > 30 | > 30 | > 10 | > 10 | > 10 |  |  | 
13 | COc1ccc(C(=O)Nc2ccccc2CCC2CCCCN2C)cc1 (stereo not given) [ENCAINIDE] |  |  |  | > 10 | > 10 | > 10 | > 10 | > 30 | > 30 | > 10 | > 30 | > 10 |  | > 30 | 
14 | CN(C)CCc1c[nH]c2ccc(C[C@H]3COC(=O)N3)cc12 [ZOLMITRIPTAN] |  | > 30 | > 30 | > 30 |  |  |  |  |  |  |  |  | > 30 | 14 | > 30
15 | CN(C)CC/C=C1\c2ccccc2CSc2ccccc21 [DOTHIEPIN] |  | > 30 |  |  | 3.2 |  |  |  |  |  |  |  |  | > 30 | > 30
16 | CC[C@@H](C(N)=O)N1CCCC1=O |  | > 30 | > 30 | > 30 |  |  |  |  |  |  |  |  | > 30 | > 30 | > 30
17 | Nc1ccncc1N [AMIFAMPRIDINE] | > 30 |  |  |  |  |  |  |  |  |  |  |  |  |  | 
18 | CCOc1ccc(Cc2cc([C@@H]3O[C@H](CO)[C@@H](O)[C@H](O)[C@H]3O)ccc2Cl)cc1 [DAPAGLIFLOZIN] |  |  |  |  | > 10 | > 10 | > 10 |  | > 30 | 8.66 | > 30 | > 10 |  |  | 
19 | COc1ccccc1N1CCN(CC(O)COc2cccc3ccccc23)CC1 (stereo not given) [NAFTOPIDIL] | 0.02 | > 30 | > 30 |  | 0.543 |  |  |  |  |  |  |  |  | > 30 | 26
20 | COc1cc2nc(N3CCN(C(=O)c4ccco4)CC3)nc(N)c2cc1OC [PRAZOSIN] |  |  |  |  |  | > 10 | > 10 | > 30 | > 30 |  | 4.1 |  |  |  | > 30
21 | CCCC1O[C@@H]2C[C@H]3[C@@H]4CCC5=CC(=O)C=C[C@]5(C)[C@H]4[C@@H](O)C[C@]3(C)[C@]2(C(=O)CO)O1 (stereo not given in full) [BUDESONIDE] |  |  |  |  | > 10 |  | > 10 |  |  |  | > 30 |  |  |  | 
22 | NC1CCN(c2c(F)cc3c(=O)c(C(=O)O)cn(C4CC4)c3c2Cl)C1 (stereo not given) [CLINAFLOXACIN] |  |  |  |  |  |  |  |  |  |  |  |  | > 300 |  | 
23 | CCCCCNC(=N)N/N=C/c1c[nH]c2ccc(OC)cc12 [TEGASEROD] |  | 21 | > 30 | 3.47 | 2.05 |  | 10 | > 30 | > 30 | 0.31 | 2.8 | 0.169 |  | > 30 | > 30
